Experiments:
[1] = Racemization experiment in aqueous phosphate buffer pH 11 warmed at 37° C.; type: physicochemical; conditions: aqueous phosphate buffer solution pH=11, c=10^-5 M, 26 hours at 37° C.
[2] = Stability towards racemization at different pH values (aqueous buffer solutions, refrigerator, optical purity by chiral column chromatography); type: physicochemical; conditions: for racemization (stereochemical stability): after 16 days
Procedure: Stability Towards Racemization at Different pH Values
The stability of the optically pure compounds of the invention against racemization has been measured at low concentrations in a refrigerator in aqueous buffer solutions at pH 8, 9.3, 10 and 11.2. The stereochemical stability was measured by comparing the optical purity for the (−)-isomer of 5-methoxy-2-[[(4-methoxy-3,5-dimethyl-2-pyridinyl)-methyl]sulfinyl]-1H-benzimidazole in buffer solution immediately after dissolving and after several days. The measurement was performed by chromatography on an analytical chiral column.

racemization (stereochemical stability, optical purity immediately after dissolving vs after several days) ([2]; aqueous buffer solution pH 11.2, refrigerator, low concentration, after 21 days) | chemical degradation of the compound ([2]; aqueous buffer solutions pH 8, 9.3 and 10, refrigerator (compared with pH 11.2)) | SMILES | racemization [1] | racemization (stereochemical stability) ([2]; aqueous buffer solution pH 8, refrigerator) | racemization (stereochemical stability) ([2]; aqueous buffer solution pH 9.3, refrigerator) | racemization (stereochemical stability) ([2]; aqueous buffer solution pH 10, refrigerator)
– | – | COc1ccc2[nH]c([S+]([O-])Cc3ncc(C)c(OC)c3C)nc2c1.[Na+] (single isomer, unassigned; (+)) [(+)-5-methoxy-2-[[(4-methoxy-3,5-dimethyl-2-pyridinyl)methyl]sulfinyl]-1H-benzimidazole sodium salt] | without any racemization at all being observed | – | – | –
no racemization | more apparent | COc1ccc2[nH]c([S+]([O-])Cc3ncc(C)c(OC)c3C)nc2c1 (single isomer, unassigned; (-)) [(−)-5-methoxy-2-[[(4-methoxy-3,5-dimethyl-2-pyridinyl)methyl]-sulfinyl]-1H-benzimidazole] | – | at none of these pH values a detectable racemization was obtained | at none of these pH values a detectable racemization was obtained | at none of these pH values a detectable racemization was obtained

From patent publication US6875872B1, “Compounds” (AstraZeneca, priority 1993, dated 2005)
